Experimental findings from US20230190713A1 (priority 2020, published 2023) are described below.

“And” between values parts separate entries of the source, which are not always exact repeats. Equal entries are not always repeated. “Also recorded” adds a separate entry of the source. Where two headings read alike, the source gives them in different places.

Data set [1] has as its system 2019-nCoV (2019BetaCoV/Wuhan/WIV04/2019 strain). Put plainly: microbe, parasite or virus in culture. In kind it is cell-based.
Another data set has as its system Ebola virus replicon. The data set can be described thus: microbe, parasite or virus in culture. In kind it is cell-based. The following applies: Zaire ebolavirus.
For data set [2], the system named is avian influenza virus A/GuangZhou/99 (H9N2). The data set can be described thus: organism not typed. In kind it is cell-based.
Data set [3] deals with 2019-nCoV. Set-up: species or system K18-hACE male mice. The following applies: mouse, in vivo.
In data set [4] the test system is 2019-nCoV. Details: species or system Syrian hamster. The following applies: hamster, in vivo.
Data set [5] has as its system 2019-nCoV, Ebola virus, avian influenza virus A/GuangZhou/99 (H9N2). Type of data set: cell-based.
The subject of data set [6] is 2019-nCoV, Ebola virus, and avian influenza virus A/GuangZhou/99 (H9N2). Put plainly: organism not typed. In kind it is cell-based. As to conditions: read-out: EC50 values (level reached).
The nature of the next data set: in vitro. The following applies: Syrian hamster.
For another data set, the system named is A/WSN/33(H1N1) virus. Set-up: species or system BALB/c female mice. As to conditions: mouse, in vivo.
Where [7] appears, read: Severe acute respiratory syndrome coronavirus 2, Vero C1008, 48 h.
The mark [8] stands for this setting: Severe acute respiratory syndrome coronavirus 2, Vero C1008, read-out: 2019-nCoV EC50 (µM).
The mark [9] stands for this setting: Severe acute respiratory syndrome coronavirus 2, Vero C1008, read-out: concentration at which replication efficiency of 2019-nCoV is inhibited by 50%.
[10] abbreviates: BSR-T7/5, read-out: Ebola virus EC50 (µM).
Where [11] appears, read: BSR-T7/5, read-out: concentration at which replication efficiency of Ebola replicon is inhibited by 50%.
[12] abbreviates: MDCK, read-out: A/GuangZhou/99(H9N2) EC50 (µM).
The mark [13] stands for this setting: unidentified influenza virus, H9N2, MDCK, read-out: concentration at which replication efficiency of avian influenza virus H9N2 is inhibited by 50%.

For the molecule `CN(/N=C/c1ccccc1C(=O)O)c1nc(-c2ccccc2Cl)cs1` [Compound 1], the EC50 in data set [1] (setting [7]) turned out to be 0.017 µM; in data set [1] (setting [8]) it was 0.017 µM; in data set [1] (setting [9]) it was 0.017 µM; in the data set on Ebola virus replicon (BSR-T7/5, 24 h), 0.018 µM; in the data set on Ebola virus replicon (setting [10]), 0.018 µM; in the data set on Ebola virus replicon (setting [11]) it was 0.018 µM. Further, the EC50 in data set [2] (MDCK) is 0.021 µM; in data set [2] (setting [12]), 0.021 µM; in data set [2] (setting [13]), 0.02 µM; in data set [6] it was ~10 nM. Further, the “weight loss and death caused by viral infection” value in the data set with 2019-nCoV [3] is on record as “did not significantly improve; also recorded: could not significantly improve”. For the same molecule, in the data set with 2019-nCoV [4], the “reduction of viral load in lung tissue” value is given as “more than 100 fold”. Moreover, the “viral infection-induced weight loss” value with 2019-nCoV [4] is recorded as “significantly slowed”. Also, the “therapeutic effect in combination with other antiviral drugs” value in [5] is listed as “better therapeutic effects”. This molecule also returned a CC50 in the data set “in vitro” of 85800 nM.
With `CCN(/N=C/c1ccccc1C(=O)O)c1nc(-c2ccccc2Cl)cs1` [Compound 2], the EC50 was determined as 0.16 µM in data set [1] (setting [8]), 0.13 µM in the data set on Ebola virus replicon (setting [10]) and 0.28 µM in data set [2] (setting [12]).
For `CCCN(/N=C/c1ccccc1C(=O)O)c1nc(-c2ccccc2Cl)cs1` [Compound 3], the EC50 in [1] (setting [8]) turned out to be 2.35 µM; in the data set on Ebola virus replicon (setting [10]), 5.42 µM; in [2] (setting [12]) it was 2.38 µM.
For the molecule `CC(C)N(/N=C/c1ccccc1C(=O)O)c1nc(-c2ccccc2Cl)cs1` [Compound 4], the EC50 in [1] (setting [8]) turned out to be 10.2 µM; in the data set with Ebola virus replicon (setting [10]) it was 5.35 µM; in [2] (setting [12]), 8.37 µM.
In the same order, the values of `CCC(C)N(/N=C/c1ccccc1C(=O)O)c1nc(-c2ccccc2Cl)cs1` (stereo not drawn) [Compound 5] are > 100 µM, 89 µM and 45.4 µM.
The matching figures for `CCCC(C)N(/N=C/c1ccccc1C(=O)O)c1nc(-c2ccccc2Cl)cs1` (stereo not drawn) [Compound 6]: > 100 µM, 97 µM and 22.2 µM.
In the case of `O=C(O)c1cc(C(F)(F)F)ccc1/C=N/Nc1nc(-c2ccccc2Cl)cs1` [Compound 8-1], the values for the EC50 (in data set [1] (setting [8]); in the data set with Ebola virus replicon (setting [10]); in [2] (setting [12])) were 5.25 µM, 1.14 µM and > 100 µM, respectively.
On to `CN(/N=C/c1ccc(C(F)(F)F)cc1C(=O)O)c1nc(-c2ccccc2Cl)cs1` [Compound 8], for which the EC50 was > 100 µM in data set [1] (setting [8]), 49 µM with Ebola virus replicon (setting [10]) and > 100 µM in data set [2] (setting [12]).
`Cc1ccc(/C=N/Nc2nc(-c3ccccc3Cl)cs2)c(C(=O)O)c1` [Compound 9-1]: the EC50 in data set [1] (setting [8]) worked out at 0.07 µM; with Ebola virus replicon (setting [10]) it was 0.89 µM; in [2] (setting [12]), 0.33 µM.
Consider `Cc1ccc(/C=N/N(C)c2nc(-c3ccccc3Cl)cs2)c(C(=O)O)c1` [Compound 9], for which the EC50 in data set [1] (setting [8]) came out at 0.29 µM; in the data set on Ebola virus replicon (setting [10]), 2.26 µM; in data set [2] (setting [12]) it was 1.37 µM.
In the same order, the values of `O=C(O)c1cc(F)ccc1/C=N/Nc1nc(-c2ccccc2Cl)cs1` [Compound 10-1] are 0.11 µM, 0.97 µM and 0.33 µM.
The matching figures for `CN(/N=C/c1ccc(F)cc1C(=O)O)c1nc(-c2ccccc2Cl)cs1` [Compound 10]: 0.1 µM, 0.32 µM and 3.2 µM.
Take `Cc1ccc(/C=N/N(C)c2nc(-c3ccccc3)c(C)s2)c(C(=O)O)c1` [Compound 11]: the EC50 in data set [1] (setting [8]) is > 100 µM.
Still for that read-out and setting: the same measure for `Cc1sc(N/N=C/c2ccccc2C(=O)O)nc1-c1ccccc1` [Compound 12-1]: 0.52 µM.
On the same count and under the same terms, under `Cc1sc(N(C)/N=C/c2ccccc2C(=O)O)nc1-c1ccccc1` [Compound 12] stands 0.35 µM.
On to `Cc1sc(N(C)/N=C/c2ccccc2C(=O)O)nc1-c1ccccc1Cl` [Compound 13], for which the EC50 in [1] (setting [8]) was > 100 µM; in data set [2] (setting [12]) it was 8.27 µM.
Regarding `O=C(O)c1ccccc1/C=N/Nc1nc(-c2ccccc2Cl)cs1` [Compound 16], the EC50 in [1] (setting [7]) amounted to 1.56 µM; in data set [1] (setting [8]) it was 1.56 µM; in [1] (setting [9]), 1.55 µM; in the data set on Ebola virus replicon (BSR-T7/5, 24 h) it was 11.4 µM; in the data set on Ebola virus replicon (setting [10]), 11.4 µM; in the data set with Ebola virus replicon (setting [11]) it was 15 µM. The EC50 was 13.2 µM in data set [2] (MDCK), 13.2 µM in [2] (setting [12]), 13.2 µM in [2] (setting [13]) and ~10 nM in data set [6]. The “mice treated (survival)” value with A/WSN/33(H1N1) virus is 50%-100% and 50% and 100%. For the same molecule, the “therapeutic effect in combination with other antiviral drugs” value in [5] is “better therapeutic effects”.
As for `O=C(O)c1cc(F)c(F)cc1/C=N/Nc1nc(-c2ccccc2Cl)cs1` [Compound 23-1], the EC50 in data set [1] (setting [8]) was 5.44 µM.
Consider `O=C(O)c1ccccc1/C=N/Nc1nc(-c2cc(Cl)ccc2Cl)cs1` [Compound 55], for which the EC50 in data set [1] (setting [8]) came to 1.02 µM; with Ebola virus replicon (setting [10]), 5.4 µM; in data set [2] (setting [12]), 4.06 µM.
